This is an account of results in publication PMC8620390, “New Multi-Targeted Antiproliferative Agents: Design and Synthesis of IC261-Based Oxindoles as Potential Tubulin, CK1 and EGFR Inhibitors” (Pharmaceuticals, 2021).

One assay concerns the target CK1. Put plainly: Casein Kinase 1 (CK1) 33P-ATP assay. Type of assay: biochemical. On the procedure: The active CK1, kinase assay buffer, substrate solution and kinase dilution buffer were thawed on ice (^33P-ATP assay Cocktail). In a precooled microcentrifuge tube, 10 μL of kinase solution, 5 μL of substrate solution and 5 μL of cold water (4 °C) were added, then a blank control was set up. Each reaction was initiated by adding 5 μL of ^33P-ATP assay cocktail then incubated for 15 min in a water bath (30 °C), then 20 μL of the reaction mixture were spotted onto an individually precut strip of phosphocellulose P81 paper and allowed to air dry followed by washing using 1% H2SO4 with constant gentle stirring. A radioactive control was set up then 5 μL of γ-^33P-ATP assay cocktail was spotted on P81 paper, the sample was allowed to air dry for 2 min then the radioactivity count was recorded.

The test system of the next assay is COLO-205. Put plainly: IC50 against COLO-205, SRB assay. Type of assay: cell-based. The conditions noted are these: Homo sapiens, 0.001–100 μM. On the procedure:
(§1) Cell viability was assessed by the sulforhodamine B (SRB) assay. Aliquots of cell suspension (5 × 10^3 cells, 100 μL) were transferred into 96 well plates and incubated in complete media for 24 h. Cells were treated with another aliquot media (100 μL) containing compounds 3a–f, 4a–f, 6a–f, 7a–f, 9a–b at concentrations of 1 and 10 μM). After 72 h of drug exposure, cells were fixed by replacing media with trichloroacetic acid (TCA, 10%, 150 μL) and incubated at 4 °C for 1 h. The TCA solution was removed, and the cells were washed five times with distilled water. Aliquots of SRB solution (0.4%w/v, 70 μL) were added and incubated in a dark place at room temperature for 10 min. Plates were washed three times with 1% acetic acid and allowed to air dry overnight. Then, a solution of TRIS base and TRIS HCl (TRIS buffer, 10 mM, 150 μL) was added to dissolve protein bound SRB stain. The absorbance was measured at 540 nm using BMGLABTECH®–FLUOstar omega micro-plate reader (Ortenberg, Germany).
The same procedures used to screen two-dose anticancer activities were applied in determining IC50 values against COLO-205 using SRB assay. Cells were maintained at Roswell Park Memorial Institute media (RPMI media). The test was performed using 0.001–100 μM of compounds 4a (IC261), 4b, 4d, 4e, 6e and 6f. IC50 values were calculated using the equation for Boltzman sigmoidal concentration–response curve using the nonlinear regression fitting models by GraphPad, Prism version 5 (GraphPad Software Inc., La Jolla, CA, USA).

The test system of a further assay is PC-3. The assay is described as follows: Two-dose antiproliferative screening, SRB assay, PC-3. It is filed as cell-based. The conditions noted are these: triplicates; for Growth Inhibition (%) PC-3 1 μM Average: 72 h; for inhibition at 1 µM / inhibition at 10 µM: Homo sapiens, PC-3, 72 h; for inhibition at 1 µM: read-out: Growth Inhibition (%) PC-3 1 μM Average; for inhibition at 10 µM: read-out: Growth Inhibition (%) PC-3 10 μM Average. On the procedure:
(§2) MCF-7(breast adenocarcinoma), PC-3 (prostate cancer) and COLO-205 (colorectal cancer) were obtained from Nawah Scientific inc., (Mokatam, Cairo, Egypt). Cells were maintained in Dulbecco’s Modified Eagle’s media (DMEM media) supplemented with […] of streptomycin, 100 units/mL of penicillin and 10% of heat-inactivated fetal bovine serum in humidified, 5% (v/v) CO2 atmosphere at 37 °C.
as §1

For another assay, the system named is MCF-7. The assay is described as follows: Two-dose antiproliferative screening, SRB assay, MCF-7. It is filed as cell-based. The conditions noted are these: triplicates; for Growth Inhibition (%) MCF-7 1 μM Average: 72 h; for inhibition at 1 µM / inhibition at 10 µM: Homo sapiens, MCF7, 72 h; for inhibition at 1 µM: read-out: Growth Inhibition (%) MCF-7 1 μM Average; for inhibition at 10 µM: read-out: Growth Inhibition (%) MCF-7 10 μM Average. On the procedure: as §2, §1

The subject of the next assay is A549 cell line. Put plainly: MTT assay for A549 cell line. It is filed as cell-based. Here is the method:
MTT assay for A549 cell line. Cell Line cells were obtained from American Type Culture Collection. Cells were cultured using DMEM (Invitrogen/Life Technologies, Carlsbad, CA, USA) supplemented with 10% FBS (Hyclone, Logan, UT, USA), 10 μg/mL of insulin (Sigma, St. Louis, MI, USA), and 1% penicillin-streptomycin. All the other chemicals and reagents were from Sigma (St. Louis, MI, USA) or Invitrogen (Carlsbad, CA, USA). Cells were plated (cells density 1.2–1.8 × 10,000 cells/well) in a volume of 100 µL complete growth medium + 100 μL of the tested compound per well in a 96-well plate for 24 h before the application of MTT assay protocol as reported, Supplementary Materials.
Cell Line cells were obtained from American Type Culture Collection , cells were cultured using DMEM (Invitrogen/Life Technologies) supplemented with 10% FBS (Hyclone,), 10 ug/ml of insulin (Sigma), and 1% penicillin-streptomycin. All of the other chemicals and reagents were from Sigma, or Invitrogen.
Plate cells (cells density 1.2 – 1.8 × 10,000 cells/well) in a volume of 100µl complete growth medium + 100 ul of the tested compound per well in a 96-well plate for 24 hours before the MTT assay .
1. Remove culture medium to a centrifuge tube.
2. Briefly rinse the cell layer with 0.25% (w/v) Trypsin 0.53 mM EDTA solution to remove all traces of serum which contains Trypsin inhibitor.
3. Add 2.0 to 3.0 ml of Trypsin EDTA solution to flask and observe cells under an inverted microscope until cell layer is dispersed (usually within 5 to 15 minutes). […]
waiting for the cells to detach. Cells that are difficult to detach may be placed at 37°C […]
4. Add 6.0 to 8.0 mL of complete growth medium and aspirate cells by gently
5. […]
6. Spectrophotometrically measure absorbance at a wavelength of 570 nm. Measure the background absorbance of multiwell plates at 690 nm and subtract from the […] measurement. Tests performed in multiwell plates can be read using the appropriate type of plate reader or the contents of individual wells may be transferred to appropriate size cuvets for spectrophotometric measurement.

Read-outs that look alike come from different tables or passages of the source. Marks after values point to notes of the source that are not given here.

`COc1cc(OC)c(/C=C2/C(=O)Nc3ccccc32)c(OC)c1` [Compound 4a, (E)-3-(2,4,6-trimethoxybenzylidene)indolin-2-one, reference compound]: on CK1, the “CK 1 inhibition IC50 (as printed in μM in discussion)” value came out at 2.39 µM and the “Casein Kinase I Inhibition IC50” value came to 2.39 µg/mL. Also, the “Casein Kinase I Inhibition IC50” value at CK1 (IC261) is recorded as 2.39 (4a, IC261) μg/mL. Further, the IC50 with COLO-205 was 0.2 µM. Besides, in the assay with PC-3, the “Growth Inhibition (%) PC-3 1 μM Average” value is listed as 59.19%, the inhibition at 1 µM came out at 60% and the inhibition at 10 µM is 67.9%. Also, in the assay on MCF-7, the “Growth Inhibition (%) MCF-7 1 μM Average” value is reported as 43.49 ^c %, the inhibition at 1 µM was determined as 44% and the inhibition at 10 µM was 58.9%. Further, the IC50 in the assay with A549 cell line (Homo sapiens, A549) amounted to 28 µM. The compound further gave an IC50 with A549 cell line (listed as 4a (IC261)) of 28.4 µM.
Take `COc1cc(OC)c(/C=C2/C(=O)Nc3cc(Cl)ccc32)c(OC)c1` [Compound 4b, (E)-6-chloro-3-(2,4,6-trimethoxybenzylidene)indolin-2-one]: the “Casein Kinase I Inhibition IC50” value on CK1 was 1.92 µg/mL. The compound also returned an IC50 in the assay with COLO-205 of 0.2 µM. Moreover, in the assay on PC-3, the “Growth Inhibition (%) PC-3 1 μM Average” value amounted to 64.05%, the inhibition at 1 µM is 65% and the inhibition at 10 µM came out at 71.7%. Moreover, in the assay with MCF-7, the “Growth Inhibition (%) MCF-7 1 μM Average” value is recorded as 45.3%, the inhibition at 1 µM was 46% and the inhibition at 10 µM is 59.1%. In addition, the IC50 with A549 cell line (Homo sapiens, A549) stood at 9.5 µM.
